ChEMBL document CHEMBL1201862, “PubChem BioAssay data set” (2004)
Active and inactive are the calls of the source.

Legend:
MEF = experiment: SAR analysis of small molecule cytotoxicity of MazEF TA System activators in embryonic fibroblast (MEF) cells. [Related pubchem assays (depositor defined):AID504720, AID504743]; format: functional; details: Mus musculus
[1] = target: T1, Endoribonuclease toxin MazF (Escherichia coli K-12, UniProt P0AE70); experiment: activation of MazEF endoribonuclease cleavage – biochemical, fluorescence, single-stranded RNA substrate, uHTS hits, dose response (AID 588481); format: functional
T1 sequence (P0AE70 whole entry): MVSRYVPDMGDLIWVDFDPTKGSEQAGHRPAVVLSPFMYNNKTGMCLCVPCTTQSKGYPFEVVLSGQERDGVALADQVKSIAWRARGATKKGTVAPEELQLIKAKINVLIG

[2] = target: T1, Endoribonuclease toxin MazF; experiment: SAR analysis of small molecule activators of the MazEF TA System via a fluorescence-based single-stranded RNase assay counterscreen. [Related pubchem assays (depositor defined):AID504720, AID504743]; format: functional
[3] = target: T1, Endoribonuclease toxin MazF; experiment: substrate-only fluorescence increase artefacts – biochemical, single-stranded RNase substrate, counter-screen for MazEF activator project, dose response (AID 588502); format: functional
[4] = target: T1, Endoribonuclease toxin MazF; experiment: MazEF toxin-antitoxin RNase activation – biochemical, fluorescence, single-stranded RNA substrate, SAR follow-up (AID 588603); format: functional
Streptococcus = experiment: GAS UMAA2166 growth inhibition – luminescence, BacTiterGlo, counter-screen for streptokinase expression inhibitor project, dose response (AID 1915); format: functional, organism-based;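 note: potency for reduction of bacterial viability or growth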
[5] = Luminescence Cell-Based Dose Confirmation HTS to Identify Inhibitors of Platelet Dense Granule Release. [Related pubchem assays: 1663 (Primary HTS), 1678 (Summary of Project)]; format: functional
[6] = target: T2, Nuclear receptor subfamily 0 group B member 1 (Homo sapiens, UniProt P51843); format: functional, cell-based
T2 sequence (P51843 whole entry): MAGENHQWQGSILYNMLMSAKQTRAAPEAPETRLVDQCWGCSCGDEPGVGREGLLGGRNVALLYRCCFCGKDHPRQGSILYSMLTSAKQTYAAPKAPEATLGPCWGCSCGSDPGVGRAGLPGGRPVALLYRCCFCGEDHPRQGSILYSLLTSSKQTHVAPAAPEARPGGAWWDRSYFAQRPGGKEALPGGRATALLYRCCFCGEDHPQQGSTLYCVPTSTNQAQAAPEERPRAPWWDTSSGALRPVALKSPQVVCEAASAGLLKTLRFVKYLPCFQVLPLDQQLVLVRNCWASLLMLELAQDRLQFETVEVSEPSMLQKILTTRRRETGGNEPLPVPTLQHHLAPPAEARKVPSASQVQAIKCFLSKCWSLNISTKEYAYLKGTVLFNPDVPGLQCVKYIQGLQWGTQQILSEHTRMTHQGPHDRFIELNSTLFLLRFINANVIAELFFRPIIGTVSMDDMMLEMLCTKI

[7] = viability loss in HepG2 hepatoma cells – cell-based, ATP luminescence, cherry-pick, activator set 2, cytotoxicity control, dose response (AID 1053143); format: functional
cells = format: functional, cell-based
Streptokinase A = target: T3, Streptokinase A (Streptococcus pyogenes serotype M1, UniProt P10520); experiment: viability-normalized secreted streptokinase activity reduction – plasminogen activation absorbance, OD405, dose response (AID 1914); format: functional, Streptococcus pyogenes M1 GAS;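 note: secreted streptokinase activity via plasminogen activation per viability signal from cell pellet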
T3 sequence (P10520 whole entry): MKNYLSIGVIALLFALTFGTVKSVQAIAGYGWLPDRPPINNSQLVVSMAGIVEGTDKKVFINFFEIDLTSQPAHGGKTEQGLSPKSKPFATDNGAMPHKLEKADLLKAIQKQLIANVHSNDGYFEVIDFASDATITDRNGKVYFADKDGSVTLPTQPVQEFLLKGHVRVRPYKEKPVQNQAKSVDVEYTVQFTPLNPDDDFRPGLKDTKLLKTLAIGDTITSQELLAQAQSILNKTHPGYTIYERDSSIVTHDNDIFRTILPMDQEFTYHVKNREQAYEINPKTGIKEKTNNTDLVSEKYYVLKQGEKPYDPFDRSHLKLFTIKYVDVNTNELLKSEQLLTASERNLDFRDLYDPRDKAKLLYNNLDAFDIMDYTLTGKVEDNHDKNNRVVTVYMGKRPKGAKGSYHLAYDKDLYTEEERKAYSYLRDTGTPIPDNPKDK

HeLa = experiment: ATP-based viability loss in HeLa cells – cell-based, CellTiter-Glo luminescence, cherry-pick samples, cytotoxicity control for MITF activator project, dose response (AID 540259); format: functional; details: Homo sapiens
[8] = target: Luciferin 4-monooxygenase (Photinus pyralis, UniProt P08659); experiment: inhibition of purified Photinus pyralis luciferase – biochemical, luminescence, dose response (AID 1891)
Sequence of Luciferin 4-monooxygenase (P08659 whole entry): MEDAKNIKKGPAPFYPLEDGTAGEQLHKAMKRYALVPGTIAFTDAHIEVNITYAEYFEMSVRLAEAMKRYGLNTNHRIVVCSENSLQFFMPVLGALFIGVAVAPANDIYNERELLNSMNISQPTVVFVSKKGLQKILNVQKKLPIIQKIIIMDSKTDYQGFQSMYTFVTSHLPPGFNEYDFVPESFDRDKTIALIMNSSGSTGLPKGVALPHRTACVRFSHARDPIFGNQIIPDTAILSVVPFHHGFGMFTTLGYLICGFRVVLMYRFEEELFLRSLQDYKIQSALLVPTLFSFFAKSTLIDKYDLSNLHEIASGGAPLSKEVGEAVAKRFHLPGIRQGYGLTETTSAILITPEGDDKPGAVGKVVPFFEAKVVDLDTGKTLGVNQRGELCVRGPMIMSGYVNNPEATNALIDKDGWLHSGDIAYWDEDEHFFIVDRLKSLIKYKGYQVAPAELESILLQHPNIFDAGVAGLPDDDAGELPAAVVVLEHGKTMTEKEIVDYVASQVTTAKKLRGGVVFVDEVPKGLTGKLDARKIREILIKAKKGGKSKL

HEK293 = experiment: cells; format: functional, cell-based; details: Homo sapiens
[9] = target: T2, Nuclear receptor subfamily 0 group B member 1; experiment: Luminescence-based cell-based high throughput dose response assay for inhibitors of the orphan nuclear receptor subfamily 0, group B, member 1 (DAX1; NR0B1). [Related pubchem assays (depositor defined):AID504766, AID504790]; format: functional
[10] = fluconazole-exposed Candida albicans growth modulators – fluorescence, retest, confirmation (AID 2467); format: functional, cell-based
[11] = target: ATP-dependent molecular chaperone HSP82 (Candida albicans (strain WO-1) (Yeast), UniProt C4YTQ8); experiment: steroid-induced GRE reporter decrease in yeast – S. cerevisiae, luminescence, Hsp90 inhibitor project, dose response (AID 2400); format: functional, cell-based;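 note: beta-galactosidase luminescence from glucocorticoid response element reporter as proxy for Hsp90 function; inhibitor potency where signal loss means Hsp90 inhibition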
Sequence of ATP-dependent molecular chaperone HSP82 (C4YTQ8 whole entry): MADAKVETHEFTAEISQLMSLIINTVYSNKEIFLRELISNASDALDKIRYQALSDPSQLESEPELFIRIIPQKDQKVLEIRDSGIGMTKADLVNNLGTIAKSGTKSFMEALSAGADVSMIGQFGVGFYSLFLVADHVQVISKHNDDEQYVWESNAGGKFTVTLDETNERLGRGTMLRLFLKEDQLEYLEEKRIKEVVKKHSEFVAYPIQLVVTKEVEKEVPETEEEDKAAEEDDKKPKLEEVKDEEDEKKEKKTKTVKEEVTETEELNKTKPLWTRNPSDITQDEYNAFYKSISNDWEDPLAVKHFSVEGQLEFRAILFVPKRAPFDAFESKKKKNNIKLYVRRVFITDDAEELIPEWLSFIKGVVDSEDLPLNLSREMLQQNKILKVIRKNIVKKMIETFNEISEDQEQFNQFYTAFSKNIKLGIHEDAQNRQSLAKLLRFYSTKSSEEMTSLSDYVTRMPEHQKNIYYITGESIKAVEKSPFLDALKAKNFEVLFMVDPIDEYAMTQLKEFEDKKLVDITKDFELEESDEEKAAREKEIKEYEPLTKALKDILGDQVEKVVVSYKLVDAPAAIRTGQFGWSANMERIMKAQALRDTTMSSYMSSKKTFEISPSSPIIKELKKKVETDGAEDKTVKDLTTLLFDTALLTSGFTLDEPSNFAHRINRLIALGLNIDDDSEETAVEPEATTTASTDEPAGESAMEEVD

[12] = target: T4, Rac GTPase-activating protein 1 (Homo sapiens, UniProt Q9H0H5); experiment: blockers of MgcRacGAP-driven Rac1 GTP hydrolysis – biochemical, ADP Hunter fluorescence, primary and confirmatory, confirmation (AID 624330); format: functional
T4 sequence (Q9H0H5 whole entry): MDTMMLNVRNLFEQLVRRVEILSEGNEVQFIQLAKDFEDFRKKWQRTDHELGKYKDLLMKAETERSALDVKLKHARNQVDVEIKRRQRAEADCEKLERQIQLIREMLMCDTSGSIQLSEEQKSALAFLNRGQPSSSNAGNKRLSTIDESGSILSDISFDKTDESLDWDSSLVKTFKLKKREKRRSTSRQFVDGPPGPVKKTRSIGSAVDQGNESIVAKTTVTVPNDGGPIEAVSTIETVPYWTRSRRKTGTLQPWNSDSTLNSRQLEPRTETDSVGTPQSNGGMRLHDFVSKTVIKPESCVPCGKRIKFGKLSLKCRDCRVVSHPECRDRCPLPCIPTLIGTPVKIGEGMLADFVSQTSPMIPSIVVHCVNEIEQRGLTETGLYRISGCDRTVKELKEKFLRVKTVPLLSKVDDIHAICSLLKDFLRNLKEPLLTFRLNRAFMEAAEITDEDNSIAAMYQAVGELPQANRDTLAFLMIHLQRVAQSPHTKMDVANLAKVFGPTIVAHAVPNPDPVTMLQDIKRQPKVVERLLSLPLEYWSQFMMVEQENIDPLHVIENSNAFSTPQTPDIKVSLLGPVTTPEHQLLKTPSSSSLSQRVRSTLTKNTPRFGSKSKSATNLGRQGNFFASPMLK

[13] = target: Serine/threonine-protein phosphatase (Candida dubliniensis (strain CD36 / CBS 7987 / NCPF 3949 / NRRLY-17841) (Yeast), UniProt B9W6M3); experiment: blockers of CaCl2-induced CDRE-lacZ signaling – S. cerevisiae, luminescence, secondary, dose response (AID 2388); format: functional, cell-based;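 note: yeast reporter cells carrying a calcineurin-responsive lacZ construct stimulated with calcium chloride; luminescent beta-galactosidase reporter signal in whole cells rather than isolated phosphatase activity; potency for inhibition where a drop in reporter signal means calcineurin blockade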
Sequence of Serine/threonine-protein phosphatase (B9W6M3 whole entry): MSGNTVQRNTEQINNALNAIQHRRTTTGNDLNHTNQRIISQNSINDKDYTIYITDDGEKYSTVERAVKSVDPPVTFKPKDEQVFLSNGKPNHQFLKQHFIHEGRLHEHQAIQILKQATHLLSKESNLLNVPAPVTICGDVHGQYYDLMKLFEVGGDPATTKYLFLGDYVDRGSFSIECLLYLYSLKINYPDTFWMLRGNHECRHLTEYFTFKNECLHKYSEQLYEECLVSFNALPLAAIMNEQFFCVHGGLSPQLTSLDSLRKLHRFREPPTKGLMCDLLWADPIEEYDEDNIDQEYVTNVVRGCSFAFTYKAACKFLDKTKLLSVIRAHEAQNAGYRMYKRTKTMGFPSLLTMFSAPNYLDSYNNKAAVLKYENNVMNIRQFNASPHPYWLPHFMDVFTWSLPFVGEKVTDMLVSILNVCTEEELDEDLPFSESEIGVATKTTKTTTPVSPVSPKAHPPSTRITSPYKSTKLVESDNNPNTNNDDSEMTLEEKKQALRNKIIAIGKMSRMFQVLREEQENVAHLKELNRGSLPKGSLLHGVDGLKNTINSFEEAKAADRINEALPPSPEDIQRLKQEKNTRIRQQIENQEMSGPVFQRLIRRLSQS

[14] = NIH-3T3 fibroblast cytotoxicity, dose response, cytotoxicity control, cell-based, fluorescence, Alamar Blue, secondary assay (AID 2327); format: functional;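 note: NIH-3T3 mouse fibroblasts cultured with fluconazole at 8 µg/mL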
Cysteine protease ATG4B = Cysteine protease ATG4B (Homo sapiens, UniProt Q9Y4P1); format: functional;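 note: Fluorescence-based dose-response confirmation assay measuring inhibition of ATG4B activity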
Sequence of Cysteine protease ATG4B (Q9Y4P1 whole entry): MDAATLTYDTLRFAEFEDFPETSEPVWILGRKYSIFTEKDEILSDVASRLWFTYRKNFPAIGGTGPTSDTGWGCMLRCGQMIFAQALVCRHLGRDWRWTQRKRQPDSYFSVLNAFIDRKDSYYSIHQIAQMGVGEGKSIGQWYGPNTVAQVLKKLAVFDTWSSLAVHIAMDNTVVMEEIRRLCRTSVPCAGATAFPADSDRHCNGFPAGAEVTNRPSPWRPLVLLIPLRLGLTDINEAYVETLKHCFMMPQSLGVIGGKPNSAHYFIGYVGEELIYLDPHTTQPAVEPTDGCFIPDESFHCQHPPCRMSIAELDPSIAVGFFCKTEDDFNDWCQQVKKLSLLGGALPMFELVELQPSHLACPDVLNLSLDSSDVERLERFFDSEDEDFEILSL

Phospholipase A2 = Phospholipase A2 (Homo sapiens, UniProt P04054); format: functional;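 note: confirmatory dose-response counterscreen on phospholipase A2, testing hits that came from an ultra-high-throughput screen for ATG4B inhibitors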
Sequence of Phospholipase A2 (P04054 whole entry): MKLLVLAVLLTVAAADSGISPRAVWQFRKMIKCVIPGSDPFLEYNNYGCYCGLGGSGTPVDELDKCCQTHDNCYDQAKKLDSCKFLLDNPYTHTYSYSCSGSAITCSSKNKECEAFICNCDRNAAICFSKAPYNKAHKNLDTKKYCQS

Phospholipase D1 = Phospholipase D1 (Homo sapiens, UniProt Q13393); experiment: cellular phospholipase D1 inhibition IC50 – cell-based, dose response (AID 602151); format: functional;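 note: cellular PLD1 assay in Calu-1 cells stimulated with PMA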
Sequence of Phospholipase D1 (Q13393 whole entry): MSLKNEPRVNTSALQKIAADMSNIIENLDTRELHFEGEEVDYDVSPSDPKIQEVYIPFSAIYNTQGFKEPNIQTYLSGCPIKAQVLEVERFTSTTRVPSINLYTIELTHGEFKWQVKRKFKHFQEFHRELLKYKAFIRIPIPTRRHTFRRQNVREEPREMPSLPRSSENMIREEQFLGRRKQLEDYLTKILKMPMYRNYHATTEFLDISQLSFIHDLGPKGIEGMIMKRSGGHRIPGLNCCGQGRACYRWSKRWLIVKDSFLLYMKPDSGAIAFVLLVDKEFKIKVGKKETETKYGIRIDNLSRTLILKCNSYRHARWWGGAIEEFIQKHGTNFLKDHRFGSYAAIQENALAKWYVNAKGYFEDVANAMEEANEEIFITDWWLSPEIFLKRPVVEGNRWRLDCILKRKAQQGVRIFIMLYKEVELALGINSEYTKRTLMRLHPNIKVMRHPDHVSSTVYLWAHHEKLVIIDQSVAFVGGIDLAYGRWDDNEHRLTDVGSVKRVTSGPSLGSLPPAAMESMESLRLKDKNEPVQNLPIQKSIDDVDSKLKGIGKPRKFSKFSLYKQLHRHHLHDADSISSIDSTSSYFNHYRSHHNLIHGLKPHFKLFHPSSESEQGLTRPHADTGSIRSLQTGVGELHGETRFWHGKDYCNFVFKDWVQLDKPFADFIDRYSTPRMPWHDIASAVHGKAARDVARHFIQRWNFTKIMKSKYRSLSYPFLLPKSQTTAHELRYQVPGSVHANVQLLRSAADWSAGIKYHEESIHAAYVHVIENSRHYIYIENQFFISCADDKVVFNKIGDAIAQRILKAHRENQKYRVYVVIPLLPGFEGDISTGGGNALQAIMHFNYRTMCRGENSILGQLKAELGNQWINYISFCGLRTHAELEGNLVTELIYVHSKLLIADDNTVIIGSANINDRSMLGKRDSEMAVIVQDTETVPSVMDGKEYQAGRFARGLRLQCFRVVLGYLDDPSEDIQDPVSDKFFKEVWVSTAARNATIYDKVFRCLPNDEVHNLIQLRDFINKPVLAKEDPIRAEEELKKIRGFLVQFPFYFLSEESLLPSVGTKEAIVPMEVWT

Phospholipase D2 = Phospholipase D2 (Homo sapiens, UniProt O14939); experiment: cellular phospholipase D2 inhibition IC50 – cell-based, dose response (AID 602147); format: functional;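 note: cellular assay in HEK293 cells overexpressing GFP-tagged PLD2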
Sequence of Phospholipase D2 (O14939 whole entry): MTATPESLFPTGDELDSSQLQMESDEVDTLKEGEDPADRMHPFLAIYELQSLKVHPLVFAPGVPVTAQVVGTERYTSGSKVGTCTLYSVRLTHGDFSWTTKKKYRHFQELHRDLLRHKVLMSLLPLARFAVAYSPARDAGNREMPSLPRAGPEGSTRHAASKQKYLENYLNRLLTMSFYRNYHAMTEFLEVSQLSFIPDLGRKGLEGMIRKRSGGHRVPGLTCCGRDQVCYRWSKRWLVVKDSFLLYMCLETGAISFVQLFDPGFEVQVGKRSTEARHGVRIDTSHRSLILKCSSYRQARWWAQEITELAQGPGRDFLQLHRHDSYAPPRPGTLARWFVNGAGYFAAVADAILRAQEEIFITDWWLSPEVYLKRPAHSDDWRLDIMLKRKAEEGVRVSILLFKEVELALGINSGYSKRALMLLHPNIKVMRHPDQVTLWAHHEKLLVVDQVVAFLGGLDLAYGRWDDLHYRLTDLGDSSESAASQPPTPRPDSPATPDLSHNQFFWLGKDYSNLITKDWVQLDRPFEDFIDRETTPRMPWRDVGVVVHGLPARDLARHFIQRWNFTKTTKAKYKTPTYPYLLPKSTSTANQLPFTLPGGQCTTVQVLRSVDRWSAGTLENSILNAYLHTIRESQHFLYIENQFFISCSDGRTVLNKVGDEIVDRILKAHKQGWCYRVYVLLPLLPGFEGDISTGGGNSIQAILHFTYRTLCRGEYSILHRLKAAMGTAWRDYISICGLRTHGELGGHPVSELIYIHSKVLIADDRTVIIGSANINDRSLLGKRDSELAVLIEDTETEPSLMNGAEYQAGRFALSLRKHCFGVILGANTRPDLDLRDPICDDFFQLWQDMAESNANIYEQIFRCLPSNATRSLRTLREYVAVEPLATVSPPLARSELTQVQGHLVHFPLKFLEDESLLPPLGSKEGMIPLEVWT

For `O=C(NC(=O)c1ccc(F)cc1)Nc1nc(-c2cccs2)cc(C(F)(F)F)n1`, the CC50 (MEF) was > 99 µM (inactive), the EC50 [1] was 20.3 µM (inactive) and the EC50 [2] was > 99 µM (inactive). The EC50 [3] was > 99 µM (inactive) and the EC50 [4] was > 99 µM (inactive).

In the case of `O=C(Nc1ccccc1)C(=O)Nc1ccc2c(c1)N(C(=O)C1CC1)CCC2`, the EC50 (Streptococcus) is reported as 25.4 µM (active), the EC50 [5] is reported as 3.74 µM (active) and the IC50 [6] is reported as > 67.5 µM (inactive). For the same compound, the AC50 [7] was 26 µM (active), the IC50 (cells) was > 67.5 µM (inactive) and the EC50 (Streptokinase A) was > 150 µM (not active). For the same compound, the AC50 (HeLa) was 14.1 µM (active) and the EC50 [8] was 1.13 µM (active).

With `Cc1nc(N)nc(COc2ccccc2)n1` the IC50 (HEK293) was > 67.4 µM (inactive) and the IC50 [9] was > 67.4 µM (inactive).

For `COc1ccc(-n2c(=O)c3c4c(sc3n3c(S)nnc23)CCCC4)cc1`, the EC50 [10] was 1.17 µM (active), the EC50 [11] was 4.45 µM (active) and the IC50 [12] was 35.7 µM (active). The EC50 [13] was > 180 µM (inactive) and the EC50 [14] was 34.1 µM (inconclusive).

In the case of `O=C(c1ccc(Cl)c(S(=O)(=O)Nc2ccccc2C(=O)N2CCc3ccccc3C2)c1)N1CCc2ccccc2C1`, the IC50 (Cysteine protease ATG4B) is reported as 15.6 µM (active) and the IC50 (Phospholipase A2) is reported as 10.7 µM (active).

For `C[C@@H](CN1CCC(n2c(=O)[nH]c3ccccc32)CC1)NC(=O)c1ccc(F)c(F)c1`, the IC50 (Phospholipase D1) was 0.02 µM (active) and the IC50 (Phospholipase D2) was 1.6 µM (active).
